According to patent publication US20220087983A1, “ACTIVATING PYRUVATE KINASE R” (FORMA Therapeutics, Inc., priority 2020, published 2022):
“And” between values parts separate entries of the source, which are not always exact repeats. Equal values may be shown once.

Key:
PKR in mouse RBCs = target: T1, PKR in mouse RBCs (Mus musculus, UniProt P53657); assay: PKR activation in mouse red blood cells; format: cell-based
T1 construct: endogenous in cells; host or cells: mouse RBCs freshly isolated from whole blood
T1 sequence (P53657 whole entry): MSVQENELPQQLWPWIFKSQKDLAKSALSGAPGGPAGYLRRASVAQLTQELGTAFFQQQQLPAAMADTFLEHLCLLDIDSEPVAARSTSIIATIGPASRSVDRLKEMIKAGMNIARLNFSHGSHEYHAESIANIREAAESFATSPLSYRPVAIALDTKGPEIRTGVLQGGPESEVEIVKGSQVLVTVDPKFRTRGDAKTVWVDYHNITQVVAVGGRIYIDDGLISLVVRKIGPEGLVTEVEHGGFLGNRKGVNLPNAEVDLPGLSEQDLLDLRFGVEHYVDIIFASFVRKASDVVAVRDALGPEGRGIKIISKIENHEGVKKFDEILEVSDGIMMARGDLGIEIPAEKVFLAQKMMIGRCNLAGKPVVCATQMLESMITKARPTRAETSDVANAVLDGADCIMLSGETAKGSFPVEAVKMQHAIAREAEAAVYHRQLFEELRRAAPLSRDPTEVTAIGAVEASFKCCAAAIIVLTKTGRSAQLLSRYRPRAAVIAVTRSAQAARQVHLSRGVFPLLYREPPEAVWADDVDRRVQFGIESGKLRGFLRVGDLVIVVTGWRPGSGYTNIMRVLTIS
From the text: Mouse RBCs were isolated fresh from whole blood using a Ficoll gradient and assayed with methods similar to those used in the human RBCs assays.

wt-PKR = wt-PKR (Homo sapiens, UniProt P30613); assay: Enzyme assay of PKR kinetics and activation (Example 3); format: biochemical; details: PEP at or below Km
Sequence of wt-PKR (P30613 whole entry): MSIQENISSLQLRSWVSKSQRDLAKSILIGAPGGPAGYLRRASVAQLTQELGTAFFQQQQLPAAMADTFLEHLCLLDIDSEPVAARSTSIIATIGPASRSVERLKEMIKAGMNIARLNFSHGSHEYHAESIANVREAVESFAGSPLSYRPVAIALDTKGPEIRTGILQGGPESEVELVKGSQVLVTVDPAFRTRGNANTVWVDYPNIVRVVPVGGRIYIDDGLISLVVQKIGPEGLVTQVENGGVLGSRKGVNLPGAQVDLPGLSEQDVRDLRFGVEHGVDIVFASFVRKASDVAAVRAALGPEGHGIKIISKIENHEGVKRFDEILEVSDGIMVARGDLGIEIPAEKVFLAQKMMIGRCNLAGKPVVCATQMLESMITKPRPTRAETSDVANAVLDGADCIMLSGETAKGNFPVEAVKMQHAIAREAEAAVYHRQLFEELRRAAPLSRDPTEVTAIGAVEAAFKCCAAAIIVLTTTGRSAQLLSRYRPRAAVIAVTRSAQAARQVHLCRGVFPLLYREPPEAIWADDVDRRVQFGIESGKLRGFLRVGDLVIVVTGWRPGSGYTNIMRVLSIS
Procedure: The ability of Compound 1 to activate PKR in enzyme-based assays was measured.
Tests were conducted in the presence and absence of fructose-1,6-bisphosphate (FBP), a known allosteric activator of PKR.

[1] = Preclinical safety: arrhythmia risk, mutagenicity, panels of receptors, enzymes, ion channels and kinases in vitro
ATP blood levels [2] = assay: Phase 1: blood ATP levels in SCD patients; format: in vivo, human; details: single 700 mg dose (FIG. 54A)
Procedure: In this study, SAD/MAD cohorts are randomized (3 to 1) to receive Compound 1 or placebo (P). Compound 1 was evaluated first in 4 healthy SAD cohorts and 4 healthy MAD (14-day dosing period) cohorts. Based on the safety, and PK/PD profile from HS, Compound 1 is then evaluated in 1 SCD SAD cohort and 2 SCD MAD cohorts. Specifically, based on the safety and pharmacokinetic/pharmacodynamics (PK/PD) profile in healthy volunteer studies, Compound 1 is evaluated in patients (pts) with SCD, first in a single dose (SD or SAD) cohort and then in multiple-dose (MD or MAD) cohorts (14-day and 12-week). Safety assessments include AEs, vital signs, ECGs and laboratory parameters. PK/PD blood sampling was performed on Day 1 (SAD/MAD) and Day 14 (MAD) and up to 72 h after the last dose and at the end-of-study visit. […]
The following table reports the mean percentage change in ATP blood levels, relative to baseline, measured over time in SCD patients after a single dose of Compound 1 (700 mg):
ATP levels were increased from baseline in patients receiving Compound 1, resulting in improved RBC function and reduced hemoloysis. The following table reports the mean percentage change in ATP blood levels, relative to baseline, measured over time after the first dose on days 1 and 14 in SCD patients who received daily doses of Compound 1 (300 mg QD) for 14 days: […]

CYP1A2 = target: T2, CYP1A2 (Homo sapiens, UniProt P05177); assay: Single substrate DDI assay, reversible CYP inhibition in human liver microsomes; format: in vitro ADME
T2 construct: from tissue; host or cells: human liver microsomes
T2 sequence (P05177 1-516): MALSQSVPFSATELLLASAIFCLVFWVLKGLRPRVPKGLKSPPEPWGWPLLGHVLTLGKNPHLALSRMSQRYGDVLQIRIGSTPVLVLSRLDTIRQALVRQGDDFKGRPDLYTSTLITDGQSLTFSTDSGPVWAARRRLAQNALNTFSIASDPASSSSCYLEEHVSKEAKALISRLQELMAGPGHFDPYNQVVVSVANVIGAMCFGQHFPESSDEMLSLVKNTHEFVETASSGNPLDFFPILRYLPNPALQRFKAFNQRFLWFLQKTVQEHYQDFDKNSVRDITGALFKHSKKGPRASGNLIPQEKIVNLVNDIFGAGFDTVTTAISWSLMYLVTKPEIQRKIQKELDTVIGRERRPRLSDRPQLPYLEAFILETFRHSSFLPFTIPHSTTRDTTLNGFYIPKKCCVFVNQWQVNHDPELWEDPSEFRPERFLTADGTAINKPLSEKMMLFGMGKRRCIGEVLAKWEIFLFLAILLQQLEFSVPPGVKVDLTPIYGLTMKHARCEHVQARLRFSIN

ATP blood levels [3] = assay: Phase 1: blood ATP levels in healthy volunteers (LC-MS/MS); format: in vivo, human; details: for Mean maximum percent change from baseline in ATP: all doses and timepoints
Procedure: In this study, SAD/MAD cohorts are randomized (3 to 1) to receive Compound 1 or placebo (P). Compound 1 was evaluated first in 4 healthy SAD cohorts and 4 healthy MAD (14-day dosing period) cohorts. Based on the safety, and PK/PD profile from HS, Compound 1 is then evaluated in 1 SCD SAD cohort and 2 SCD MAD cohorts. Specifically, based on the safety and pharmacokinetic/pharmacodynamics (PK/PD) profile in healthy volunteer studies, Compound 1 is evaluated in patients (pts) with SCD, first in a single dose (SD or SAD) cohort and then in multiple-dose (MD or MAD) cohorts (14-day and 12-week). Safety assessments include AEs, vital signs, ECGs and laboratory parameters. PK/PD blood sampling was performed on Day 1 (SAD/MAD) and Day 14 (MAD) and up to 72 h after the last dose and at the end-of-study visit. PD parameters included 2,3-DPG, ATP, and p50 in all cohorts with additional PD studies (including oxygen scan) performed only in the SCD cohorts. PD parameters included 2,3-DPG, ATP, p50, RBC deformability with controlled deoxygenation and reoxygenation (Lorrca® oxygen scan) and varying osmolality (Lorrca® osmoscan)). To maintain study blind, pt identifiers were removed when needed.
In the MAD cohorts, the subjects' blood ATP levels were measured […] by a qualified LC-MS/MS method for the quantitation of ATP in blood. […] Table 20A reports the median percentage change in blood ATP levels, relative to baseline, measured over time after the first dose on days 1 and 14 in healthy volunteers who received daily doses of Compound 1 (100 mg BID, 200 mg BID, 300 mg BID, or 400 mg QD) or placebo for 14 days. Table 20B reports the mean percentage change in ATP blood levels, relative to baseline, measured over time after the first dose on days 1 and 14 in healthy volunteers who received daily doses of Compound 1 (100 mg BID, 200 mg BID, 300 mg BID, or 400 mg QD) for 14 days.
The following procedures are employed for the analysis of ATP and 2,3-DPG in human whole blood K2EDTA using a protein precipitation extraction procedure and analysis by LC-MS/MS. […]

With `O=C([C@H](CO)c1ccccc1)N1CC2=C(C1)CN(S(=O)(=O)c1cnc3c(c1)OCCO3)C2` (single isomer, unassigned) [Compound 1] the “Max − Min (%)” value (PKR in mouse RBCs; individual replicates 1-2) was <50% and <100%, the “Mean Max − Min (%)” value (PKR in mouse RBCs; mean) was <100% and the AC50 (wt-PKR) was < 0.1 µM. For the same compound, the “preclinical evidence of arrhythmia risk, mutagenicity, or nonspecific binding activity” value [1] was “has not demonstrated any preclinical evidence of arrhythmia risk, mutagenicity, or nonspecific binding activity”, the “lag of maximum ATP increase behind maximum plasma concentration” value (ATP blood levels [2]) was “at least 24 hours” and the IC50 (CYP1A2) was > 30 µM. For the same compound, the “Mean maximum percent change from baseline in ATP” value (ATP blood levels [3]; HV MAD, N = 36) was 68.5%, the “Mean maximum percent change from baseline in ATP” value (ATP blood levels [3]; HV SAD, N = 24) was 24.4% and the “lag of maximum ATP increase behind maximum plasma concentration” value (ATP blood levels [3]; HV, single 200-1000 mg dose) was “at least 24 hours”.
